Values after ≈ are worked out from the molar mass of the structure shown. Each block holds one molecule with its values, some of them ahead of it.
What was measured:
[1] = Pharmacokinetics of ATL compounds after oral administration in ICR male mice; format: in vivo; conditions: 5 mg/kg oral
Procedure: Supplementary file 13024_2023_630_MOESM1_ESM.eps: Additional file 1: Supplementary figure 1. Drug profiles of ATL and Autotac compounds. A, drug profiles of ATL compounds. Tissue concentrations and oral bioavailability were measured in ICR male mice upon 5 mg/kg oral administration of each ATL compound. B, structures of ATC161~164. C, Pharmacokinetic study of ATC161 conducted in male ICR mice otherwise indicated. M.W. represents molecular weight. The plasma exposure and the half-life were determined upon either POor IPATC161 administration. The drug tissue exposure was determined in Tau301L BiFC mice. IV refers to intravenous injection.

[2] = system: HEK293A cells transduced with h-α-syn PFFs; assay: Immunocytochemistry in HEK293A cells transduced with h-α-syn PFFs; format: cell-based, human; conditions: 1 μM, 24 h
Procedure: Recombinant human α-syn (1–140) were obtained from NKMAX (SNA2001L). In vitro fibrillization was performed by diluting recombinant α-syn monomers to 1 mg/mL in sterile PBS, then incubating at 37 °C with constant agitation at 1,000 rpm for seven days. The fibrillization was verified by thioflavin T and sedimentation assays. The ability to form phospho-α-syn (S129) was also assessed by immunocytochemistry. In addition, to determine whether the generated PFFs act as seeds to accumulate endogenous α-syn, an adenovirus that expresses c-Myc-His-tagged human α-syn (gifted from lab of S.J.L) was used to infect cultured cells at an MOI of 10, followed by a fractionation assay. The administration of PFFs into 293A cells was done with protein delivery reagent (BioPORTER QuikEase Protein Delivery Kit, Sigma) following the provider’s instruction. The mouse α-syn PFFs were obtained from StressMarq (SPR-324). Prior to treatment, PFFs were sonicated at 20% amplitude, 1 s pulse on and off for 30 s (SONICS Vibra Cell sonicator, Merck Z412619). For cells, α-syn monomers and PFFs were transduced at 1 µg/mL.
Cells were fixed with 4% paraformaldehyde (PFA) for 20 min at room temperature, followed by permeabilization with 0.1% Triton X-100 buffer for 15 min. The cells were blocked with 2% bovine serum albumin (BSA) in PBS for 1 h at room temperature. Then, the cells were incubated with primary antibodies diluted in the blocking buffer overnight at 4 °C. After washing with PBS, the slides were incubated with AlexaFluor-conjugated secondary antibodies for 1 h at room temperature. After mounting the slides with mounting solution containing DAPI, the images were captured on an LSM700 confocal microscopy (Carl Zeiss).

p62 and α-syn aggregates = target: T1, p62 and α-syn aggregates (Homo sapiens, UniProt P37840+Q13501); assay: Proximity ligation assay (PLA) of p62 and α-syn in HEK293A cells; format: cell-based; conditions: α-syn PFF-transduced cells; 1 μM, 6 h
T1 construct: Recombinant human α-syn (1–140) were obtained from NKMAX (SNA2001L); endogenous in cells; host or cells: HEK293A cells transduced with h-α-syn PFFs
Procedure: Proximity ligation assays were conducted using a PLA kit (Sigma-Aldrich) according to the manufacturer’s protocol. 293A Cells were seeded on coverslips and cultured for 24 h. After fixation with 4% PFA, the cells were permeabilized with 0.1% Triton X-100. The cells were incubated with antibodies for p62 (Abcam; ab56319) and alpha-synuclein aggregates (Abcam; ab209538) overnight at 4 °C. After washing with PLA washing buffer, the cells were hybridized, ligated and amplified by rolling circle. Coverslips were mounted on slides using mounting medium containing DAPI, and the images were captured by confocal microscopy (Zeiss).

p62 = p62 self-oligomerization and LC3 synthesis/lipidation by ATLs (in vitro p62 aggregation assay, rat cortex primary neurons); format: cell-based; conditions: ATL7, ATL13, ATL21 compared; 1 μM, 24 h in neurons, 1 mM in lysates
Solubility = format: physicochemical; conditions: pH 7.4
Plasma stability = format: in vitro ADME; conditions: after 120 min
Tyr residues of α-syn = target: Tyr residues of α-syn; parameters: method as in PMID 15096521; conditions: cited from earlier work
α-syn amyloids = target: α-syn amyloids; parameters: method as in PMID 17597573; conditions: cited from earlier work

- AUClast in brain [1]: 722.9 ng·h/g
- Kp ([1]; mouse, brain and plasma, brain vs plasma AUClast, read-out: B/P ratio): ~3
Compound: OCCNCc1ccc(OCc2ccccc2)c(OCCCc2ccccc2)c1 [ATL7, 2-((4-(benzyloxy)-3-(3-phenylpropoxy)benzyl)amino)ethan-1-ol]
- increase in number of p62+LC3+ colocalizing puncta [2]: approximately 81%
- targeting of α-syn to LC3+ autophagic membranes ([2]; absence and presence of bafilomycin A1): did not show significant activities
- interaction between p62 and α-syn aggregates (PLA puncta) (p62 and α-syn aggregates): failed to enhance the interaction between p62 and α-syn aggregates
- relative activity to induce p62 self-oligomerization and LC3 synthesis and lipidation (p62): highest activities

- solubility (Solubility): 106 µg/mL (≈ 383 µM)
- plasma stability, remaining (Plasma stability): 96.3%
Compound: OCCNCc1cccc(OCc2ccc(F)cc2)c1 [ATL13, 2-((3-((4-fluorobenzyl)oxy)benzyl)amino)ethan-1-ol]

- AUC(0-t) ([1]; mouse, plasma, read-out: oral bioavailability, AUClast): 2590 ng·h/mL
Compound: OCCNC[C@@H](O)COc1ccc(OCc2ccc(F)cc2)c(OCc2ccc(F)cc2)c1 [ATL21, (R)-1-(3,4-bis((4-fluorobenzyl)oxy)phenoxy)-3-((2hydroxyethyl)amino)propan-2-ol]

Compound: O=c1cc(-c2ccccc2)oc2cc(O)c(O)c(O)c12 [baicalein]
- Kd (Tyr residues of α-syn): 0.5 µM

Compound: Oc1ccc(/C=C/c2cc(O)cc(O)c2)cc1 [resveratrol]
- Kd (α-syn amyloids): 36.8 µM

From article PMC10290391, “Targeted degradation of ⍺-synuclein aggregates in Parkinson’s disease using the AUTOTAC technology” (Molecular Neurodegeneration, 2023)
